Data from patent US11939314B2, “Quinolin-2-one derivatives” (MERCK PATENT GMBH, priority 2016, dated 2024).

Columns and labels:
c-Kit(V654A) = biological target: T1, c-Kit(V654A) (Homo sapiens, UniProt P10721, V654A); assay: c-Kit(V654A) assay; type: biochemical; details: recombinant human c-Kit aa 544-end, 200 μM ATP, 1.4E-06 means 1.4×10^−6, read-out: Inhibition (IC50) of c-KIT (V654A)
T1 construct: amino acids 544-end containing the V654A mutation; GST (N)
In short: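 Radiometric filter-binding read-out: substrate 33P incorporation counted by scintillation after P30 filtermat washes in 75 mM phosphoric acid and methanol. Enzyme: N-GST recombinant human c-Kit aa 544-end carrying V654A.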

PDGFRalpha(V561D) = biological target: T2, PDGFRalpha(V561D) (Homo sapiens, UniProt P16234, V561D); assay: PDGFRalpha(V561D) assay; type: biochemical; details: recombinant human PDGFRalpha aa 550-end, 200 μM ATP, 1.4E-06 means 1.4×10^−6, read-out: Inhibition (IC50) of PDGFRα (V561D)
T2 construct: recombinant human PDGFRalpha, amino acids 550end containing the V561 D mutation; 6His (N)
In short: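 Radiometric filter-binding assay: substrate phosphorylation by recombinant N-His-tagged human PDGFRα 550-end V561D was quenched with 3% phosphoric acid after 40 min at room temperature, then counted.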

T2 sequence (P16234 550-1089 V561D): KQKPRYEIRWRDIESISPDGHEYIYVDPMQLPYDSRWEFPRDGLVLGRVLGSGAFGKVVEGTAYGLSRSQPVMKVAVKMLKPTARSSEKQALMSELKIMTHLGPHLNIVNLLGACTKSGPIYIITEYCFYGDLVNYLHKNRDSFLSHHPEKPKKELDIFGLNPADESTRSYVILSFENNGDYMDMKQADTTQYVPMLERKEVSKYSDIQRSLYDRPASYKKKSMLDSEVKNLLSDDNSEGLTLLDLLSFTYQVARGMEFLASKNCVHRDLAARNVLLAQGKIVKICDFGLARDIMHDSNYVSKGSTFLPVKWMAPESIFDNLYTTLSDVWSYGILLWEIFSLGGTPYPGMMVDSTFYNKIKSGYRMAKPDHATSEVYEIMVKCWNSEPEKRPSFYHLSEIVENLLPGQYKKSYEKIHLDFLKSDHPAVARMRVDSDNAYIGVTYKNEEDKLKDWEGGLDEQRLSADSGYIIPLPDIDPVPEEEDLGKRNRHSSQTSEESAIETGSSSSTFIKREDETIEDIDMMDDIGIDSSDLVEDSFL
T1 sequence (P10721 544-976 V654A): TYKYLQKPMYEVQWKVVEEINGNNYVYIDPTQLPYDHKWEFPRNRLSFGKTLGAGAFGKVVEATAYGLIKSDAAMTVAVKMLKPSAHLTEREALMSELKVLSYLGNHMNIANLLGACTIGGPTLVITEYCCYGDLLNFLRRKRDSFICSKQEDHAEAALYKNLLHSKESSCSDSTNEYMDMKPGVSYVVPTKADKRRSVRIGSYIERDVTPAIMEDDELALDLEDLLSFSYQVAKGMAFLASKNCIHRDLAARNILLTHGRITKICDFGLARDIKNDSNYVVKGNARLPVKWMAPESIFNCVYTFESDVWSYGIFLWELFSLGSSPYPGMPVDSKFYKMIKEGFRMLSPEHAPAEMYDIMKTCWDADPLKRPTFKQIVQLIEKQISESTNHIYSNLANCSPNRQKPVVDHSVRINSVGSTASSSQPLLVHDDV

SMILES	IC50 (c-Kit(V654A)) [µM]	IC50 (PDGFRalpha(V561D)) [µM]
CN1CCN(C(=O)c2ccc(-n3cc(-c4cc5ccc(Cl)cc5[nH]c4=O)nn3)cc2)CC1=O [A97, 7-chloro-3-{1-[4-(4-methyl-3-oxo-piperazine-1-carbonyl)-phenyl]-1H-[1,2,3]triazol-4-yl}-1H-quinolin-2-one]	0.017	0.01
O=C1OCCN1c1ccc(-n2cc(-c3cc4cc(F)ccc4[nH]c3=O)nn2)cc1 [A98, 6-fluoro-3-{1-[4-(2-oxo-oxazolidin-3-yl)-phenyl]-1H-[1,2,3]triazol-4-yl}-1H-quinolin-2-one]	0.18	0.075
O=c1[nH]c2ccc(F)cc2cc1-c1cn(-c2ccc(N3CCCS3(=O)=O)cc2)nn1 [A99, 3-{1-[4-(1,1-dioxo-1|6-isothiazolidin-2-yl)-phenyl]-1H-[1,2,3]triazol-4-yl}-6-fluoro-1H-quinolin-2-one]	0.033	0.076
O=C(c1ccc(-n2cc(-c3cc4cc(F)ccc4[nH]c3=O)nn2)cc1)N1CCC(N2CCCC2)C1 (centres unmarked) [A100, 3-{1-[4-([1,3′]bipyrrolidinyl-1′-carbonyl)-phenyl]-1H-[1,2,3]triazol-4-yl}-6-fluoro-1H-quinolin-2-one]	0.02	0.063
CC(=O)N1CCN(CCOc2ccc(-n3cc(-c4cc5cc(F)ccc5[nH]c4=O)nn3)cc2)CC1 [A100a, 3-(1-{4-[2-(4-acetyl-piperazin-1-yl)-ethoxy]-phenyl}-1H-[1,2,3]triazol-4-yl)-6-fluoro-1H-quinolin-2-one]	0.018	0.054
CC(=O)N1CCN(CCOc2ccc(-n3cc(-c4cc5cc(F)c(F)cc5[nH]c4=O)nn3)cc2)CC1 [A101, 3-(1-{4-[2-(4-acetyl-piperazin-1-yl)-ethoxy]-phenyl}-1H-[1,2,3]triazol-4-yl)-6,7-difluoro-1H-quinolin-2-one]	0.033	0.29
CC(=O)OC1CCN(C(=O)c2ccc(-n3cc(-c4cc5cc(F)ccc5[nH]c4=O)nn3)cc2)CC1 [A102, acetic acid 1-{4-[4-(6-fluoro-2-oxo-1,2-dihydro-quinolin-3-yl)-[1,2,3]triazol-1-yl]-benzoyl}-piperidin-4-yl ester]	0.011	0.048
CC(=O)OC1CCCN(C(=O)c2ccc(-n3cc(-c4cc5cc(F)ccc5[nH]c4=O)nn3)cc2)C1 (centres unmarked) [A103, acetic acid 1-{4-[4-(6-fluoro-2-oxo-1,2-dihydro-quinolin-3-yl)-[1,2,3]triazol-1-yl]-benzoyl}-piperidin-3-yl ester]	0.0086	0.035
O=C(c1ccc(-n2cc(-c3cc4cc(F)c(F)cc4[nH]c3=O)nn2)cc1)N1CCC(N2CCCC2)C1 (centres unmarked) [A104, 3-{1-[4-([1,3′]bipyrrolidinyl-1′-carbonyl)-phenyl]-1H-[1,2,3]triazol-4-yl}-6,7-difluoro-1H-quinolin-2-one]	0.024	0.15
O=C(c1ccc(-n2cc(-c3cc4c(F)cc(F)cc4[nH]c3=O)nn2)cc1)N1CCC(N2CCCC2)C1 (centres unmarked) [A105, 3-{1-[4-([1,3′]bipyrrolidinyl-1′-carbonyl)-phenyl]-1H-[1,2,3]triazol-4-yl}-5,7-difluoro-1H-quinolin-2-one]	0.0097	0.34
COCC1CCN(C(=O)c2ccc(-n3cc(-c4cc5cc(F)ccc5[nH]c4=O)nn3)cc2)C1 (centres unmarked) [A106, 6-fluoro-3-{1-[4-(3-methoxymethyl-pyrrolidine-1-carbonyl)-phenyl]-1H-[1,2,3]triazol-4-yl}-1H-quinolin-2-one]	0.0091	0.0009
O=C(c1cccc(-n2cc(-c3cc4cc(F)ccc4[nH]c3=O)nn2)c1)N1CCC(N2CCCC2)C1 (centres unmarked) [A107, 3-{1-[3-([1,3′]bipyrrolidinyl-1′-carbonyl)-phenyl]-1H-[1,2,3]triazol-4-yl}-6-fluoro-1H-quinolin-2-one]	0.044	0.023
O=C(c1cccc(-n2cc(-c3cc4cc(F)c(F)cc4[nH]c3=O)nn2)c1)N1CCC(N2CCCC2)C1 (centres unmarked) [A108, 3-{1-[3-([1,3′]bipyrrolidinyl-1′-carbonyl)-phenyl]-1H-[1,2,3]triazol-4-yl}-6,7-difluoro-1H-quinolin-2-one]	0.083	0.081
